For 20 compounds, T/C results are on record in PubChem BioAssay AID248 (DTP/NCI, 2004).

“And” between values parts separate entries of the source, which are not always exact repeats. Identical values can stand only once. Inconclusive results and toxic doses are left out.

For the experiment, the system named is L1210 leukemia ip in BDF1 mice, survival T/C. Briefly: NCI In Vivo Anticancer Drug Screen. Data for tumor model L1210 Leukemia (intraperitoneal) in B6D2F1 (BDF1) mice. The settings on record: endpoint: mean survival time, higher = longer survival. The gist of the method: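 Transplantable tumor model; survival measured in treated vs vehicle control mice. Value = treated/control.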

[1] abbreviates: dose: 100.0 mg/kg/injection, schedule: Q04DX003 (ip), vehicle: saline.
Where [2] appears, read: dose: 200.0 mg/kg/injection, schedule: Q04DX003 (ip), vehicle: saline.
The mark [3] stands for this setting: dose: 400.0 mg/kg/injection, schedule: Q04DX003 (ip), vehicle: saline.
[4] abbreviates: dose: 50.0 mg/kg/injection, schedule: Q01DX001 (ip), vehicle: carboxymethylcellulose (CMC).
Where [5] appears, read: dose: 100.0 mg/kg/injection, schedule: Q01DX001 (ip), vehicle: carboxymethylcellulose (CMC).
Where [6] appears, read: dose: 200.0 mg/kg/injection, schedule: Q01DX001 (ip), vehicle: carboxymethylcellulose (CMC).
Setting [7] is: dose: 400.0 mg/kg/injection, schedule: Q01DX001 (ip), vehicle: carboxymethylcellulose (CMC).
Where [8] appears, read: dose: 100.0 mg/kg/injection, schedule: Q04DX003 (ip), vehicle: Klucel (hydroxypropylcellulose) (HPC).
Setting [9] is: dose: 200.0 mg/kg/injection, schedule: Q04DX003 (ip), vehicle: Klucel (hydroxypropylcellulose) (HPC).
Setting [10] is: dose: 100.0 mg/kg/injection, schedule: Q01DX001 (ip), vehicle: saline with Tween-80.
Setting [11] is: dose: 100.0 mg/kg/injection, schedule: Q01DX009 (ip), vehicle: saline with Tween-80.
Where [12] appears, read: dose: 100.0 mg/kg/injection, schedule: Q04DX002 (ip), vehicle: saline with Tween-80.
Where [13] appears, read: dose: 100.0 mg/kg/injection, schedule: Q04DX003 (ip), vehicle: saline with Tween-80.
Where [14] appears, read: dose: 200.0 mg/kg/injection, schedule: Q01DX001 (ip), vehicle: saline with Tween-80.
Setting [15] is: dose: 200.0 mg/kg/injection, schedule: Q01DX009 (ip), vehicle: saline with Tween-80.
[16] abbreviates: dose: 200.0 mg/kg/injection, schedule: Q04DX002 (ip), vehicle: saline with Tween-80.
Where [17] appears, read: dose: 200.0 mg/kg/injection, schedule: Q04DX003 (ip), vehicle: saline with Tween-80.
[18] abbreviates: dose: 400.0 mg/kg/injection, schedule: Q01DX001 (ip), vehicle: saline with Tween-80.
Setting [19] is: dose: 400.0 mg/kg/injection, schedule: Q01DX009 (ip), vehicle: saline with Tween-80.
[20] abbreviates: dose: 400.0 mg/kg/injection, schedule: Q04DX002 (ip), vehicle: saline with Tween-80.
Where [21] appears, read: dose: 400.0 mg/kg/injection, schedule: Q04DX003 (ip), vehicle: saline with Tween-80.
Where [22] appears, read: dose: 400.0 mg/kg/injection, schedule: Q04DX003 (ip), vehicle: Klucel (hydroxypropylcellulose) (HPC).
The mark [23] stands for this setting: dose: 100.0 mg/kg/injection, schedule: Q01DX001 (ip), vehicle: saline.
The mark [24] stands for this setting: dose: 200.0 mg/kg/injection, schedule: Q01DX001 (ip), vehicle: saline.
Setting [25] is: dose: 400.0 mg/kg/injection, schedule: Q01DX001 (ip), vehicle: saline.

With `C[n+]1c(/C=C/c2ccnc3c(O)cccc23)sc2ccccc21`, the T/C runs as follows: (dose: 15.0 mg/kg/injection, schedule: Q01DX001 (ip), vehicle: saline) 105 % of control; (dose: 30.0 mg/kg/injection, schedule: Q01DX001 (ip), vehicle: saline) 97 % of control.

Take `CNS(=O)(=O)c1ccc(C)cc1`: the T/C (dose: 100.0 mg/kg/injection, schedule: Q01DX009 (ip), vehicle: Klucel (hydroxypropylcellulose) (HPC)) was 104 % of control; the T/C under setting [1] was 102 % of control; the T/C (dose: 200.0 mg/kg/injection, schedule: Q01DX009 (ip), vehicle: Klucel (hydroxypropylcellulose) (HPC)) is 108 % of control; the T/C under setting [2] was 100 % of control; the T/C (dose: 400.0 mg/kg/injection, schedule: Q01DX009 (ip), vehicle: Klucel (hydroxypropylcellulose) (HPC)) was 108 % of control; the T/C under setting [3] is 122 % of control.

`CN(C)Cc1c(CC(O)(c2ccccc2)c2ccccc2)ccc2ccccc12`: the T/C is, setting by setting: under setting [4], 96 % of control; under setting [5], 100 % of control; under setting [6], 96 % of control; under setting [7], 105 % of control.

Consider `CC(C)(C)c1ccc(S(=O)(=O)c2ccc(C(C)(C)C)c([N+](=O)[O-])c2)cc1[N+](=O)[O-]`, for which the T/C was 101 % of control (dose: 100.0 mg/kg/injection, schedule: Q04DX002 (ip), vehicle: Klucel (hydroxypropylcellulose) (HPC)); 92 % of control (dose: 200.0 mg/kg/injection, schedule: Q04DX002 (ip), vehicle: Klucel (hydroxypropylcellulose) (HPC)); 105 % of control (dose: 400.0 mg/kg/injection, schedule: Q04DX002 (ip), vehicle: Klucel (hydroxypropylcellulose) (HPC)).

In the case of `Ic1ccccc1CNCCc1ccccc1`, the T/C (dose: 75.0 mg/kg/injection, schedule: Q01DX001 (ip), vehicle: other) is 93 % of control; the T/C (dose: 150.0 mg/kg/injection, schedule: Q01DX001 (ip), vehicle: other) is 96 % of control; the T/C (dose: 300.0 mg/kg/injection, schedule: Q01DX001 (ip), vehicle: other) was 96 % of control.

In the case of `CCCOc1ccc(Nc2c3ccccc3nc3ccccc23)cc1`, the T/C runs as follows: under setting [8], 102 % of control; under setting [9], 96 % of control.

Regarding `CSc1nc(NN)cc(-c2ccccc2)n1`, the T/C is, setting by setting: (dose: 100.0 mg/kg/injection, schedule: Q01DX Z (ip), vehicle: methylcellulose (MC)) 98 % of control; (dose: 200.0 mg/kg/injection, schedule: Q01DX Z (ip), vehicle: methylcellulose (MC)) 90 % of control.

Turning to `CC(C)CC1C(C(C)C)C=NN1C` (configuration not stated), the T/C runs as follows: under setting [4], 100 % of control; under setting [5], 86 % of control; under setting [6], 100 % of control; under setting [7], 94 % of control.

For `CC12CCC(O)C(C)(C)C1=C(O)C(=O)C1=C2C(=O)CC2(C)C(=O)CCC12C` (configuration not stated), the T/C runs as follows: under setting [1], 93 % of control; under setting [2], 93 % of control; under setting [3], 98 % of control.

For `Cc1ccc(Cl)cc1NC(=O)Nc1ccc(N(C)C)cc1`, the T/C runs as follows: under setting [10], 92 % of control; under setting [11], 87 % of control and 90 % of control; under setting [12], 95 % of control and 90 % of control; under setting [13], 92 % of control; under setting [14], 87 % of control; under setting [15], 89 % of control and 90 % of control. Further, the T/C is 98 % of control and 87 % of control under setting [16]; 92 % of control under setting [17]; 87 % of control under setting [18]; 97 % of control and 91 % of control under setting [19]; 87 % of control under setting [20]; 89 % of control under setting [21].

With `Cc1ccc(C)c(NC(=O)OCc2ccco2)c1`, the T/C is, setting by setting: under setting [10], 97 % of control; under setting [11], 107 % of control and 89 % of control; under setting [12], 93 % of control and 100 % of control; under setting [13], 105 % of control; under setting [14], 95 % of control; under setting [15], 100 % of control and 89 % of control. For the same compound, the T/C is 96 % of control and 98 % of control under setting [16]; 93 % of control under setting [17]; 95 % of control under setting [18]; 100 % of control and 89 % of control under setting [19]; 93 % of control and 102 % of control under setting [20]; 93 % of control under setting [21].

On to `CCC(C)C(CN)(CCCN1CCOCC1)c1cccc2ccccc12` (configuration not stated), for which the T/C is, setting by setting: under setting [13], 93 % of control; under setting [17], 95 % of control; under setting [21], 95 % of control.

`CCOC(=O)c1ccc(N(CC(O)CN=[N+]=[N-])S(=O)(=O)c2ccc(C)cc2)cc1` (configuration not stated): the T/C under setting [10] is 101 % of control; the T/C under setting [11] was 102 % of control and 107 % of control; the T/C under setting [12] is 98 % of control; the T/C under setting [13] is 88 % of control; the T/C under setting [14] was 101 % of control; the T/C under setting [15] was 95 % of control and 100 % of control. In addition, the T/C is 93 % of control and 89 % of control under setting [16]; 104 % of control under setting [18]; 104 % of control and 91 % of control under setting [19]; 96 % of control and 89 % of control under setting [20]; 88 % of control under setting [21].

For `Cc1c(C)c(C)c(CN/N=C/c2ccncc2)c(C)c1C`, the T/C is, setting by setting: under setting [8], 98 % of control; under setting [9], 109 % of control; under setting [22], 101 % of control.

Take `O=C(O)CS(=O)(=O)C(c1ccccc1)c1ccccc1`: the T/C under setting [23] is 94 % of control, the T/C under setting [24] is 97 % of control and the T/C under setting [25] was 96 % of control.

As for `CN(N=O)C(=O)NCCCNC(=O)N(C)N=O`, the T/C is, setting by setting: (dose: 6.25 mg/kg/injection, schedule: Q01DX Z (ip), vehicle: carboxymethylcellulose (CMC)) 118 % of control; (dose: 12.5 mg/kg/injection, schedule: Q01DX Z (ip), vehicle: carboxymethylcellulose (CMC)) 101 % of control; (dose: 25.0 mg/kg/injection, schedule: Q01DX Z (ip), vehicle: carboxymethylcellulose (CMC)) 112 % of control; (dose: 100.0 mg/kg/injection, schedule: Q01DX Z (ip), vehicle: carboxymethylcellulose (CMC)) 200 % of control; (dose: 150.0 mg/kg/injection, schedule: Q01DX001 (ip), vehicle: carboxymethylcellulose (CMC)) 120 % of control; (dose: 150.0 mg/kg/injection, schedule: Q01DX001 (ip), vehicle: saline) 102 % of control. The T/C is, setting by setting: (dose: 250.0 mg/kg/injection, schedule: Q01DX Z (ip), vehicle: carboxymethylcellulose (CMC)) 121 % of control; (dose: 300.0 mg/kg/injection, schedule: Q01DX001 (ip), vehicle: carboxymethylcellulose (CMC)) 123 % of control; (dose: 300.0 mg/kg/injection, schedule: Q01DX001 (ip), vehicle: saline) 112 % of control; (dose: 300.0 mg/kg/injection, schedule: Q01DX Z (ip), vehicle: carboxymethylcellulose (CMC)) 90 % of control; (dose: 600.0 mg/kg/injection, schedule: Q01DX001 (ip), vehicle: saline) 109 % of control.

As to `Oc1c(Cl)cc(C(c2cc(Cl)c(O)c(Cl)c2)c2ccccn2)cc1Cl`, the T/C under setting [8] was 100 % of control, the T/C under setting [9] is 104 % of control and the T/C under setting [22] was 93 % of control.

Take `CCOP(=O)(OCC)Oc1cc(C)c(C#N)c(C)c1`: the T/C was 108 % of control (dose: 5.0 mg/kg/injection, schedule: Q01DX001 (ip), vehicle: saline); 108 % of control (dose: 10.0 mg/kg/injection, schedule: Q01DX001 (ip), vehicle: saline); 100 % of control (dose: 20.0 mg/kg/injection, schedule: Q01DX001 (ip), vehicle: saline); 103 % of control (dose: 40.0 mg/kg/injection, schedule: Q01DX001 (ip), vehicle: saline).

In the case of `O=c1c([N+](=O)[O-])cc([N+](=O)[O-])cn1O`, the T/C runs as follows: under setting [8], 100 % of control; under setting [9], 100 % of control; under setting [22], 90 % of control.

Take `O=C(O)C(F)(F)C(F)(F)C(=O)Nc1cc([N+](=O)[O-])ccc1F`: the T/C is 93 % of control under setting [23], 93 % of control under setting [24] and 93 % of control under setting [25].
